Assay results from US10874631B2, “Altertoxin II as a selective inhibitor of Ewing family of tumor cells” (priority 2016, dated 2020).

Experiments:
TC-32 cells = assay: R-loop marker S9.6 immunofluorescence; type: cell-based; conditions: TC-32 nuclei, 24 h
Experimental: (§1) FIG. 8A-8B. The effects of 10 and 100 nM altertoxin II (ATXII) on 53BP1 foci were evaluated following a 6 h treatment of A673 cells by indirect immunofluorescence. (B) Immunofluorescence of R-loop marker S9.6 in TC-32 cells 24 h after ATXII treatment. Arrows indicate R-loops within nuclei.
(§2) Multiple investigators have shown that Ewing sarcoma cells undergo replication stress and R-loop accumulation.

[1] = system: A204 rhabdomyosarcoma cells; assay: DNA damage response immunoblot (Chk1); type: cell-based; conditions: concentrations up to 1 μM
Experimental: (§3) FIG. 9A-9B. Altertoxin II causes phosphorylation of CHK1 and 2 and p53 in Ewing sarcoma cells. Ewing sarcoma cells, A673, RD-ES, SK-ES-1, or rhabdomyosarcoma A204 cells were treated with altertoxin II at the concentrations indicated for 6 h (A) or 24 h (B) and whole-cell lysates prepared and proteins separated by SDS-PAGE. These samples were analyzed by immunoblotting for total and phosphorylated Chk1 and 2 and p53 (A).
(§4) Downstream activation of DNA damage response proteins by altertoxin II was subsequently evaluated.

[2] = system: SK-ES-1 Ewing sarcoma cells; assay: DNA damage response immunoblot (Chk1); type: cell-based; conditions: 100 nM and 1 μM, 24 h
Experimental: as §3, §4

[3] = system: Rh30 rhabdomyosarcoma cells; assay: γH2AX high-content imaging; type: cell-based
Experimental: (§5) FIG. 7A-7B. Altertoxin II (ATXII) selectively induces γH2AX foci in A673 Ewing sarcoma cells. (A) A673 cells were treated for 24 h with 100 nM altertoxin II and serine 139 phosphorylation of γH2AX evaluated by indirect immunofluorescence techniques. (B) High-content imaging and image analysis were used to construct concentration-response curves for nuclear γH2AX intensity in A673 and Rh30 rhabdomyosarcoma cells after treatment with altertoxin II for 6 h.
(§6) Studies were conducted to test whether altertoxin II initiates DNA damage in Ewing sarcoma cells because of the well-known sensitivity of these cells to DNA damage and prior reports of altertoxin II-induced DNA damage in other mammalian cells (Fleck, S. C. et al., Toxicol Lett, 214, 27-32, 2012). […] Consistent with these measures of DNA damage altertoxin II.

[4] = system: RD-ES Ewing sarcoma cells; assay: DNA damage response immunoblot (Chk1, Chk2, p53); type: cell-based
Experimental: as §3, §4

Ewing sarcoma cells = assay: Panel of 5 pediatric cancer cell lines, selective cytotoxicity; type: cell-based; conditions: 5 types of solid pediatric cancers
Rh30 cells = assay: Conditioned media effect on cell growth, SRB assay; type: cell-based; conditions: media from TC-32 cells treated with 100 nM for 6 h, vs media from Rh30 cells
Experimental: FIG. 10. Effects of ATXII-conditioned media on Rh30 cell growth. TC-32 or Rh30 cells were treated with 100 nM ATXII for 6 h, the media added to Rh30 cells and cell growth determined with the SRB assay.
An experiment was conducted to test this possibility. TC-32 Ewing sarcoma and Rh30 rhabdomyosarcoma cells were treated with 100 nM ATX for 6 h and the conditioned media was then applied to the resistant Rh30 cells. […] Differences in the altertoxin II concentration were measured by LC/MS in media from TC-32 and HepG2 hepatocellular carcinoma cells.

[5] = system: A673 Ewing sarcoma murine xenograft; assay: A673 xenograft antitumor efficacy; type: in vivo, Mice
Experimental: FIG. 11. Antitumor efficacy of ATXII against A673 xenograft model. Mice were injected i.p. with 20 mg/kg. ATXII on days 1, 3, 5, 8, 10 and 12, or 40 mg/kg on days 1, 3, and 5.
Studies were conducted to evaluate the in vivo efficacy of altertoxin II in an A673 Ewing sarcoma murine xenograft model (FIG. 11). Mice bearing A673 xenograft tumors were treated with 20 mg/kg altertoxin II on days 1, 3, 5, 8 and 10, or with 40 mg/kg altertoxin II on days 1, 3 and 5.

SK-ES-1 cells = assay: PARP cleavage immunoblot (apoptosis); type: cell-based
Experimental: (§7) FIG. 4A-4B. Altertoxin II selectively induces PARP cleavage in EWS cell lines. Immunoblotting for total and cleaved PARP. (A) Two Ewing sarcoma (EWS) cell lines, RD-ES and SK-ES-1, were treated with 100 nM altertoxin II (ATX) for the indicated amounts of time. Whole-cell lysates were prepared and separated by SDS-PAGE. (B) The EWS cell line SK-ES-1 and rhabdomysosarcoma cell line A204 were treated with the indicated concentrations of ATX for 18 hours, lysed and separated by SDS-PAGE.
(§8) The ability of altertoxin II to initiate cell death via apoptosis, as measured by PARP cleavage, was evaluated in two Ewing sarcoma cells lines, SK-ES-1 and RD-ES. […] A range of altertoxin II concentrations when then evaluated in SK-ES-1 Ewing sarcoma cells as compared to A204 rhabdomyosarcoma cells.

[6] = system: A204 rhabdomyosarcoma cells; assay: PARP cleavage immunoblot (apoptosis); type: cell-based; conditions: 100 nM and 1 μM, 18 hours
Experimental: as §7, §8

RD-ES cells = assay: PARP cleavage immunoblot (apoptosis); type: cell-based; conditions: 100 nM
Experimental: as §7, §8

A673 Ewing sarcoma cells [7] = assay: 53BP1 foci immunofluorescence; type: cell-based; conditions: 10 nM and 100 nM, within 6 h
Experimental: as §1, §2

Ewing sarcoma cell lines = assay: alamar blue panel, selectivity Ewing sarcoma vs rhabdomyosarcoma cell lines; type: cell-based; conditions: alamar blue assay, mean IC50; 6 Ewing sarcoma vs 6 rhabdomyosarcoma cell lines
Experimental: FIG. 3A-3B. (A) The effects of altertoxin II were evaluated using the SRB assay in 6 Ewing sarcoma cell lines as compared to 4 other pediatric solid tumor cells lines. n≥3 independent experiments. […]
The effects of altertoxin II were studied in a larger panel of cell lines and the GI50, the concentration that causes 50% inhibition of cell growth, and the TGI, the concentration that caused total growth inhibition, were determined using the sulforhodamine b (SRB assay). The mean GI50 values shown graphically in FIG. 3A. The IC50, the concentration that causes 50% inhibition of cell proliferation, values were determined in a second panel of Ewing sarcoma and rhabdomyosarcoma cell lines using the altar blue assay and these values are presented in Table 2 and the mean in […].

A673 Ewing sarcoma cells [8] = assay: γH2AX immunofluorescence / high-content imaging; type: cell-based
Experimental: as §5, §6

For `O=C1CC[C@]2(O)c3c(ccc(O)c31)-c1ccc(O)c3c1[C@H]2[C@H]1O[C@H]1C3=O` [altertoxin II], the “R-loop formation (S9.6 marker)” value (TC-32 cells) was “increased formation of R-loops”, the Chk1 phosphorylation [1] was “Chk1 phosphorylation was not observed” and the Chk1 phosphorylation [2] was “Chk1 phosphorylation was also observed”. For the same molecule, the γH2AX foci ([3]; 10 μM, 24 h exposure) was “did initiate γH2AX foci”, the γH2AX foci ([3]; concentrations up to 1 μM, 6 or 24 h) was “no γH2AX foci were detected” and the “phosphorylation of p53” value [4] was “also observed in RD-ES cells”. For the same molecule, the “phosphorylation of Chk1 and Chk2” value ([4]; 10-300 nM, within 6 h) was “caused phosphorylation of checkpoint kinase 1 and 2”, the “selective cytotoxic activity against Ewing sarcoma cells” value (Ewing sarcoma cells) was “potent, Ewing sarcoma-specific effects” and the “activity of conditioned media against Rh30 cells” value (Rh30 cells) was “substantially higher activity”. The tumor growth ([5]; 20 mg/kg i.p. days 1, 3, 5, 8 and 10) was “trend of modest tumor growth inhibition”, the “tumor volume vs control on day 14” value ([5]; 20 mg/kg, day 14) was “no statistically significant difference” and the tumor growth ([5]; 40 mg/kg i.p. days 1, 3 and 5, 14-day trial) was “significant inhibition of tumor growth”. The “tumor size vs control on day 14” value ([5]; 40 mg/kg, day 14, p=0.0001) was “significantly smaller than control tumors”, the therapeutic window ([5]; A673 xenograft) was “acceptable therapeutic window” and the “apoptosis (PARP cleavage)” value (SK-ES-1 cells; 100 nM and 1 μM, 18 hours) was “cause apoptosis”. The “time to appearance of cleaved PARP” value (SK-ES-1 cells; 100 nM, seen at 7 and 17 hours) was no more than 7 h, the “apoptosis (PARP cleavage)” value [6] was “not the rhabdomyosarcoma cells” and the “time to appearance of cleaved PARP” value (RD-ES cells) was no more than 17 h. For the same molecule, the 53BP1 foci (A673 Ewing sarcoma cells [7]) was “nuclear foci were noted”, the “selectivity of Ewing sarcoma cell lines vs rhabdomyosarcoma cell lines” value (Ewing sarcoma cell lines) was 89 fold and the “nuclear γH2AX, high-content imaging” value (A673 Ewing sarcoma cells [8]; 30 nM, 6 h) was “caused an increase in γH2AX”. For the same molecule, the “H2AX serine 139 phosphorylation (γH2AX)” value (A673 Ewing sarcoma cells [8]; 100 nM, within 6 h) was “rapidly induced H2AX serine 139 phosphorylation”.
